Measured values: patent publication US20080242542A1, “INDANILINE DYE, THERMAL TRANSFER RECORDING INK SHEET, THERMAL TRANSFER RECORDING METHOD, COLOR TONER, INKJET INK, AND COLOR FILTER” (FUJIFILM Corporation, priority 2007, published 2008)

assay: Absorption spectrometry in ethyl acetate solution; assay type: physicochemical; conditions: 1×10^−6 mol/L, optical path length 10 mm
Procedure: The thus-obtained compounds (1) to (4) were analyzed for absorption spectrometry in an ethyl acetate solution (concentration: 1×10^−6 mol/L, optical path length; 10 mm). The data of ^1H NMR spectrometry (in heavy chloroform) and MS spectrometry of the obtained compounds (1) to (4) are shown in Table 1 below.

| Maximum Absorption Wavelength [nm] | Compound |
| --- | --- |
| 626 | CCC(=O)NC1=CC(=Nc2ccc(N(CC)CC)cc2)C(C)=C(Cl)C1=O [Compound (1)] |

assay: Light fastness of recorded image under Xe light; assay type: physicochemical; conditions: Xe light (17000 lux) for 7 days; retention of reflection density 1.0
Procedure: Next, the recorded samples were exposed to an Xe light (17000 lux) for 7 days, and rested for the light stability (light fastness) of the recorded images. After the exposure, the status A reflection density of the part of each sample having an original status A reflection density of 1.0 before the exposure was measured, and the retention (by percentage) to the reflection density of 1.0 after exposure to that before exposure indicates the image stability. With the retention percentage, the samples were ranked in three, A (from 80% to less than 100%), B (from 60% to less than 80%) , C (less than 60%).

| Light Fastness | Compound |
| --- | --- |
| A (A (from 80% to less than 100%)) | CCN(CC)c1ccc(N=C2C=C(NC(C)=O)C(=O)C(Cl)=C2C)c(C)c1 [Comparative Dye 4] |
| A (A (from 80% to less than 100%)) | CCN(CC)c1ccc(N=C2C=C(NC(=O)c3ccccc3)C(=O)C(Cl)=C2C)c(C)c1 [Comparative Dye 5] |
| A (A (from 80% to less than 100%)) | CCN(CC)c1ccc(N=C2C=C(NC(C)=O)C(=O)C(Cl)=C2C)cc1 [Comparative Dye 1] |
| B (B (from 60% to less than 80%)) | CCN(CC)c1ccc(N=C2C=C(NC(C)=O)C(=O)C=C2C)c(C)c1 [Comparative Dye 3] |
| A (A (from 80% to less than 100%)) | CCC(=O)NC1=CC(=Nc2ccc(N(CC)CC)cc2)C(C)=C(Cl)C1=O [Compound (1)] |
